Measurements from patent publication US20240417412A1, “HETEROCYCLIC COMPOUNDS AND METHODS OF USE” (AMGEN INC., priority 2022, published 2024).

Key:
p-ERK (AsPC-1 cells) = test: Phospho-ERK1/2 MSD Assay; type: cell-based; settings: Homo sapiens, ASPC1, 2 h, read-out: 2 h p-ERK (AsPC-1 cells), IC50 (μM), AsPC-1 cells, 2 hours compound treatment
KRAS G12D [1] = molecular target: KRAS G12D (Homo sapiens, UniProt P01116, G12D); test: KRAS G12D TR-FRET Assay; settings: His-tagged KRAS G12D, biotinylated KRPep-2d, read-out: KRAS G12D Binding IC50
Sequence of KRAS G12D (Homo sapiens, UniProt P01116, G12D) (P01116 1-188 isoform P01116-2 G12D): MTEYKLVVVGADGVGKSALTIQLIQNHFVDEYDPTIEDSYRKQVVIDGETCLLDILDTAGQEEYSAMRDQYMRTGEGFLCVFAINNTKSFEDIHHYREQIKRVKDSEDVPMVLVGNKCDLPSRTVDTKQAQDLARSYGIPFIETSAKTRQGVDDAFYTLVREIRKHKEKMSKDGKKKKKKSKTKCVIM
Experimental: The plate was incubated for 30 minutes at room temperature. Biotinylated KRPep-2d substrate (Amgen) was diluted to 20 nM in Assay Buffer and 2 uL was added to all wells and incubated for 1 hour at room temperature. Detection Reagent (0.4 nM LANCE Eu-W1024 Anti-6×His (Perkin Elmer AD0401), 5 nM streptavidin-d2 (Cisbio 610SADLA)) was prepared in Assay Buffer, then 4 μL was added to the plate and incubated for 1 hour at room temperature.

KRAS G12D [2] = molecular target: KRAS G12D (Homo sapiens, UniProt P01116, C118A/G12D); test: KRAS G12D Coupled Nucleotide Exchange Assay; type: biochemical; settings: GDP-bound KRAS G12D/C118A, 2 hours pre-incubation, SOS-mediated nucleotide exchange, AlphaScreen
Sequence of KRAS G12D (Homo sapiens, UniProt P01116, C118A/G12D) (P01116 1-169 isoform P01116-2 G12D/C118A): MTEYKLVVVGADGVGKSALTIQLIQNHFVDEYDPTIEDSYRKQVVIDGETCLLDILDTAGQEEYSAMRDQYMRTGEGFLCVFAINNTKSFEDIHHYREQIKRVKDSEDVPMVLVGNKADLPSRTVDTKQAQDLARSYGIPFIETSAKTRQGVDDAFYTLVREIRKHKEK
Experimental: The assay plates were then read on a PerkinElmer EnVision Multilabel Reader, using AlphaScreen® technology, and data were analyzed using a 4-parameter logistic model to calculate IC50 values.

Row | Compound | IC50 (p-ERK (AsPC-1 cells)) [µM] | IC50 (KRAS G12D [1]) [nM] | IC50 (KRAS G12D [2]) [nM]
1 | CCc1c(F)ccc2cc(O)cc(-c3ncc4c(N5CCC6(CC5)COC(=O)N6)nc(OC[C@@]56CCCN5C[C@H](F)C6)nc4c3F)c12 [Example 42, 8-(7-(8-Ethyl-7-fluoro-3-hydroxynaphthalen-1-yl)-8-fluoro-2-(((2R,7aS)-2-fluorotetrahydro-1H-pyrrolizin-7a(5H)-yl)methoxy)pyrido[4,3-d]pyrimidin-4-yl)-3-oxa-1,8-diazaspiro[4.5]decan-2-one] | 3.18 | 7 | 5
2 | CCc1c(F)ccc2cc(O)cc(-c3ncc4c(N5CCCC6(C5)CC6(F)F)nc(OC[C@@]56CCCN5C[C@H](F)C6)nc4c3F)c12 (stereo partly drawn) [Example 44, 4-(4-(1,1-Difluoro-5-azaspiro[2.5]octan-5-yl)-8-fluoro-2-(((2R,7aS)-2-fluorotetrahydro-1H-pyrrolizin-7a(5H)-yl)methoxy)pyrido[4,3-d]pyrimidin-7-yl)-5-ethyl-6-fluoronaphthalen-2-ol] | 0.252 | 3 | 3
3 | CCc1c(F)ccc2cc(O)cc(-c3ncc4c(N5CCOCC6(CC(=O)N6)C5)nc(OC[C@@]56CCCN5C[C@H](F)C6)nc4c3F)c12 (stereo partly drawn) [Example 53, 9-(7-(8-Ethyl-7-fluoro-3-hydroxynaphthalen-1-yl)-8-fluoro-2-(((2R,7aS)-2-fluorotetrahydro-1H-pyrrolizin-7a(5H)-yl)methoxy)pyrido[4,3-d]pyrimidin-4-yl)-6-oxa-1,9-diazaspiro[3.6]decan-2-one] | 0.182 | 2 | 2
